According to ChEMBL document CHEMBL1201862, “PubChem BioAssay data set” (2004):
The source made the active and inactive calls.

Assays:
[1] = molecular target: Neuropeptide Y receptor type 2 (Homo sapiens, UniProt P49146); experiment: NPY-Y2 antagonist potency, selectivity check, dose response, counter-screen for NPY-Y1 antagonist project, cell-based (AID 1278); type: functional
[2] = molecular target: Neuropeptide Y receptor type 1 (Homo sapiens, UniProt P25929); experiment: NPY-Y1 receptor antagonist potency, dose response, cell-based (AID 1277); type: functional
[3] = molecular target: T1, Luciferin 4-monooxygenase (Photinus pyralis, UniProt P08659); experiment: Counter Screen for Luciferase-based Assay Positives. [Related pubchem assays: 620, 618, 411 ]
[4] = test system: HT-1080; experiment: cytotoxicity in HT1080 fibrosarcoma cells, cell-based, fluorescence readout (AID 620); type: functional; conditions: Homo sapiens
[5] = A549 cell cytotoxicity, dose response, cytotoxicity control, plate reader, cherry-pick, antagonist series (AID 743412); type: functional, cell-based
[6] = LGR2 antagonists, dose response, cell-based, HEK293, CRE-luciferase reporter, cherry pick, set 2 (AID 743343); type: functional;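 also: transfected cells were stimulated with diluted bursicon conditioned medium after compound addition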
[7] = MC4R antagonists, dose response, counter-screen for LGR2 antagonist project, cell-based, plate reader, cherry pick (AID 743444); type: functional;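 also: transfected HEK 293 cells stimulated with alpha-MSH peptide; potency of inhibitors of the alpha-MSH evoked signal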
[8] = HEK293 cell cytotoxicity, dose response, cytotoxicity control, plate reader, cherry-picked samples (AID 743446); type: functional, cell-based
[9] = molecular target: G2/mitotic-specific cyclin-B1 (Homo sapiens, UniProt P14635); experiment: Counterscreen assay for inhibitors of Wee1 degradation: dose response cell-based assay to identify inhibitors of cyclin B degradation. [Related pubchem assays: 1410, 1321 ]; type: functional
[10] = molecular target: Wee1-like protein kinase (Homo sapiens, UniProt P30291); experiment: Dose Response Cell-based Assay for Inhibitors of Wee1 Degradation. [Related pubchem assays: 1410, 1321 ]; type: functional
[11] = test system: BJ; experiment: cytotoxicity toward BJ-TERT fibroblasts, dose response, cell-based, RAS-independent, luminescence (AID 1933); type: functional; conditions: Homo sapiens
[12] = Luminescence Cell-Based Dose Response HTS to Identify Inhibitors of 5'UTR Stem-Loop Driven Prion Protein mRNA Translation in H4 Neuroglioblastoma Cells. [Related pubchem assays: 1827 (Project Summary), 1813 (Primary HTS)]; type: functional
[13] = molecular target: T2, Heat shock factor protein 1 (Mus musculus, UniProt P38532); experiment: inhibition of MG132-induced HSE-luciferase signal, confirmation, cell-based, NIH3T3, luminescence, dose retest (AID 2382); type: functional;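 also: NIH3T3 fibroblasts with HSF1-driven luciferase reporter stressed by proteasome inhibitor MG132; luminescence from HSF1-driven luciferase expression after 8 hours of MG132 stress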
T2 sequence (P38532 whole entry): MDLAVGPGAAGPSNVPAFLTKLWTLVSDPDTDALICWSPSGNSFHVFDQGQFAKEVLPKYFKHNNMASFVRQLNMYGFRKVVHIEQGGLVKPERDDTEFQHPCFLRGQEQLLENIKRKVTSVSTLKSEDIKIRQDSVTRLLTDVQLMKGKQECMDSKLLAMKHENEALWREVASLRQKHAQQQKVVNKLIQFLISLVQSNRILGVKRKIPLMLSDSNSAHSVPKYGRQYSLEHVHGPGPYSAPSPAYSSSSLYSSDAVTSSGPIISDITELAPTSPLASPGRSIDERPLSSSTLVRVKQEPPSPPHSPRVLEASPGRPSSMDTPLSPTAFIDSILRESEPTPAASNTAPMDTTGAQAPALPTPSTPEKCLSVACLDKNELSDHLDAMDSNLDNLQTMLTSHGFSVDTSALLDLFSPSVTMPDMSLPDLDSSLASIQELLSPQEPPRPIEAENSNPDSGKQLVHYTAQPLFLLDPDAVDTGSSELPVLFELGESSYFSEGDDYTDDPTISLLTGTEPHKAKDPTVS

[14] = inhibitors of SNCA 5'UTR-driven reporter translation, confirmation, H4 neuroglioma cells, luminescence (AID 1988); type: functional, cell-based
[15] = test system: BJ; experiment: cells; type: functional, cell-based; conditions: Homo sapiens
[16] = molecular target: T1, Luciferin 4-monooxygenase; experiment: firefly luciferase enzyme inhibitors, dose response, biochemical, luminescence (AID 1891)
[17] = Luminescence Cell-Based Dose Confirmation HTS to Identify Inhibitors of Platelet Dense Granule Release. [Related pubchem assays: 1663 (Primary HTS), 1678 (Summary of Project)]; type: functional
[18] = Luminescence-based counterscreen assay for KLF5 inhibitors: dose response cell-based high throughput screening assay to identify cytotoxic compounds using the IEC-6 intestinal epithelial cell line. [Related pubchem assays: 1700 (Primary screen.), 1834 (Confirmation screen.), 1858 (Summary AID.), 1905 (Counterscreen.)]; type: functional
[19] = test system: BJ; experiment: cytotoxicity toward BJ-TERT-LT-ST fibroblasts, dose response, cell-based, RAS-independent, luminescence (AID 1935); type: functional; conditions: Homo sapiens;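 also: BJ fibroblasts immortalized with TERT plus LT and ST oncogenes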
[20] = cytotoxicity toward DRD oncogenic fibroblasts, dose response, cell-based, non-viral oncogenic, luminescence (AID 1934); type: functional; conditions: Homo sapiens
[21] = test system: HEK293; experiment: inhibitors of LMP1-driven NF-kB reporter, dose response, cell-based, HEK293, luciferase, cherry-pick (AID 588343); type: functional; conditions: Homo sapiens
[22] = test system: BJ; experiment: cytotoxicity toward Ras-transformed BJeLR fibroblasts, dose response, cell-based, alamar blue fluorescence, cherrypicked samples (AID 2631); type: functional; conditions: Homo sapiens;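 also: confirmatory dose-response assay in RAS-dependent BJ fibroblasts engineered with TERT, LT and ST, with cytotoxicity read by fluorescence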
[23] = HepG2 cell cytotoxicity, dose response, cytotoxicity control, plate reader, cherry-pick, antagonist series (AID 743416); type: functional, cell-based
[24] = molecular target: T3, Oxysterols receptor LXR-beta (Homo sapiens, UniProt P55055); type: functional, cell-based;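 also: agonist activity at LXR measured by a cell-based luminescence readout across a dose range, run as a counterscreen for daf-12 agonists; HEK293 cells with Gal4-LXR fusion and GAL4-driven luciferase reporter; potency for activation of Gal4-LXR reporter so compounds are agonists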
T3 sequence (P55055 whole entry): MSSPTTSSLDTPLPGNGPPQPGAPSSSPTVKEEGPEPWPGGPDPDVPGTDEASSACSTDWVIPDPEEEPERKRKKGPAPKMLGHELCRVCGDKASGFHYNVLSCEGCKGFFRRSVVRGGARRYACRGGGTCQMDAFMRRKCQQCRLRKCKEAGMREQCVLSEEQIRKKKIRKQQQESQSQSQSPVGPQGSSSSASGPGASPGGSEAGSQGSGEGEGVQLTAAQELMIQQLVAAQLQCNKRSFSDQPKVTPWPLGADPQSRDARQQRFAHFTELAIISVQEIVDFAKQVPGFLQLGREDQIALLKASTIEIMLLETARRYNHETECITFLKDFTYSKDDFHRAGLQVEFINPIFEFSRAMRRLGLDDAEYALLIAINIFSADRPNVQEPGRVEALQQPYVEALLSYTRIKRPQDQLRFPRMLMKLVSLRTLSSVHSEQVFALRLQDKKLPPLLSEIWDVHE

[25] = A Cell Based Secondary Assay To Explore Cytotoxicity of Compounds that Sensitize Mycobacterium Tuberculosis to Beta-Lactam Antibiotics.; type: functional
[26] = molecular target: T4, Estrogen receptor (Homo sapiens, UniProt P03372);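 also: potency for inhibiting coactivator peptide recruitment to the receptor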
T4 sequence (P03372 whole entry): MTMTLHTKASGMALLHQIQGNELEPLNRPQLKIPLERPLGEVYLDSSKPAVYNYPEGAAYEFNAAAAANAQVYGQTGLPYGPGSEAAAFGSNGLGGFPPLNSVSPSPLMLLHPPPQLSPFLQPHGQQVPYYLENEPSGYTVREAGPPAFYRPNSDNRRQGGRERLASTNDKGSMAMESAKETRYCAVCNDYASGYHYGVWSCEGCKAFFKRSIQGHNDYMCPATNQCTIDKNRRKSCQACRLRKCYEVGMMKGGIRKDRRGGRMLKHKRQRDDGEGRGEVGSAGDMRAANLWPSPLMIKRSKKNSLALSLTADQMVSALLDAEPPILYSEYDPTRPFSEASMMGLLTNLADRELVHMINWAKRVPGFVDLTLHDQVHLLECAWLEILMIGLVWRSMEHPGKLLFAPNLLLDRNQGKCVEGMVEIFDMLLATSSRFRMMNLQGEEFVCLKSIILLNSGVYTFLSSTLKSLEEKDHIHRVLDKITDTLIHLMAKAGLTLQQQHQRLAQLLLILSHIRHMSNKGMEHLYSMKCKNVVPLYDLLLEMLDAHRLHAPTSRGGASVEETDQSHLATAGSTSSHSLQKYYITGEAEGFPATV

T1 sequence (P08659 whole entry): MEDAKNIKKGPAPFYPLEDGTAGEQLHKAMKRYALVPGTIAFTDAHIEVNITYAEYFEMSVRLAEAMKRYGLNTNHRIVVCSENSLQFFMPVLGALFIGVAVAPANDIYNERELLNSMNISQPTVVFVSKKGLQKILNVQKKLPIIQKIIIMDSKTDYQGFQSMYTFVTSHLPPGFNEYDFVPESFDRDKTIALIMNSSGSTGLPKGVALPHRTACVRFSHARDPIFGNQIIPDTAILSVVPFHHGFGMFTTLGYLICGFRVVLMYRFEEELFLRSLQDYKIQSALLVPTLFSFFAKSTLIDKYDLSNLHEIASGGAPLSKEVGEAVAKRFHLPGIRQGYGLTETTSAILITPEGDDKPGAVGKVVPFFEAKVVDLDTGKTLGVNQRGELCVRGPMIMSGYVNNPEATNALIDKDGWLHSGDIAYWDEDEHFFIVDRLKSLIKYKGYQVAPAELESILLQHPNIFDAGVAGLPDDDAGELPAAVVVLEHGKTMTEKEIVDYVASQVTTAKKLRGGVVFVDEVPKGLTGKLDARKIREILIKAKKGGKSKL
Sequence of G2/mitotic-specific cyclin-B1 (P14635 whole entry): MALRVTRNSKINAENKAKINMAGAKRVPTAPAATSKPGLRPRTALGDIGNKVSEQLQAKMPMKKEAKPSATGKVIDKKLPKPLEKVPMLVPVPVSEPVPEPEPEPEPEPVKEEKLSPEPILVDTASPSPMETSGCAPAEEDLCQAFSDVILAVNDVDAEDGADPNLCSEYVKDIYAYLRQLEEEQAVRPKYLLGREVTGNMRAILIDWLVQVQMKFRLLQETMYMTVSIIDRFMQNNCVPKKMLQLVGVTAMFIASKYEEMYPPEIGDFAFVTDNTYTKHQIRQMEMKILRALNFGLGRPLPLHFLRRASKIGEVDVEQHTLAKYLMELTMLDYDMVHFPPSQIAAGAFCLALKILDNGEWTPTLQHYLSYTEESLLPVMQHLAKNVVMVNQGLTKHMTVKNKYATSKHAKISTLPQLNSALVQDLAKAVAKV
Sequence of Neuropeptide Y receptor type 1 (P25929 whole entry): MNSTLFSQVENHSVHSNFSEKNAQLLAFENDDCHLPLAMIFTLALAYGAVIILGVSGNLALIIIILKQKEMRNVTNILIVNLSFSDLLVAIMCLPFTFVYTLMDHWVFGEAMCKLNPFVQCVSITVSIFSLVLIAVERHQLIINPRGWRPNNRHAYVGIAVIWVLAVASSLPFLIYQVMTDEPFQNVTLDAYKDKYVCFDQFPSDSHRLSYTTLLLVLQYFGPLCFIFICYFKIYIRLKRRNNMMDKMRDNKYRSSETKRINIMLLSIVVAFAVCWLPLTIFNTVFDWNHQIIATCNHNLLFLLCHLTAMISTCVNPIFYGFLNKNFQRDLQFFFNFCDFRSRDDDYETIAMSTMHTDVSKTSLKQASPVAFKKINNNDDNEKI
Sequence of Neuropeptide Y receptor type 2 (P49146 whole entry): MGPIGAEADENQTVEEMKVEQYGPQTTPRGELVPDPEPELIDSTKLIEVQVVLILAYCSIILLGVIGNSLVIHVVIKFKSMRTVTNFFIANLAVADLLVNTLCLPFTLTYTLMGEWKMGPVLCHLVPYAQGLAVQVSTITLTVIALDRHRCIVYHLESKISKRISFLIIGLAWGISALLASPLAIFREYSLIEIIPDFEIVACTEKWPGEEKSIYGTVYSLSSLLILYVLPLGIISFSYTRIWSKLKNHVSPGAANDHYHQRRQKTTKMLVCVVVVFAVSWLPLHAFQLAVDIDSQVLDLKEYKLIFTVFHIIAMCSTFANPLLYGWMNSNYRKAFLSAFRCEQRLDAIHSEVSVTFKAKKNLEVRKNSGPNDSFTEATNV
Sequence of Wee1-like protein kinase (P30291 whole entry): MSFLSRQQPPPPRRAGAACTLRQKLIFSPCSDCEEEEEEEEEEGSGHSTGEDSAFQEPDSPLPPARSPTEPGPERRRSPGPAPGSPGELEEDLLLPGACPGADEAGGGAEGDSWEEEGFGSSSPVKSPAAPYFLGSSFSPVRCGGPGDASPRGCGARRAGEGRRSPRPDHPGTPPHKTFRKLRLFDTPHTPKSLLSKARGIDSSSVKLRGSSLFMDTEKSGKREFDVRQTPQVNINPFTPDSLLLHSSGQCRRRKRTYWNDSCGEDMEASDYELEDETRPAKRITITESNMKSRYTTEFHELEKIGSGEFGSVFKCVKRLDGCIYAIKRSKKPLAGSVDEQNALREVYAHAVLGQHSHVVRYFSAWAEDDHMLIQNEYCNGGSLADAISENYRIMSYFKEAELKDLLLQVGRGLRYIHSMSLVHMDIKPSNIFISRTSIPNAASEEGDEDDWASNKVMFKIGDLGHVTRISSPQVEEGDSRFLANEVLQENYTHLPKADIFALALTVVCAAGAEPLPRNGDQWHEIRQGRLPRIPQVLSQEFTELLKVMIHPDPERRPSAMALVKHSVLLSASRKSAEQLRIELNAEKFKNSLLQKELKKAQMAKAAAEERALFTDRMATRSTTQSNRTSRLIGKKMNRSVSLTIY

With `CC(C)(C)NC(=O)c1oc2ccccc2c1COc1ccccc1` the IC50 [1] was > 35 µM (not active) and the IC50 [2] was 18.9 µM (not active).

With `CCOc1ccc(C(=O)NCCc2ccccc2)cc1` the EC50 [3] was 1.09 µM (active), the EC50 [4] was > 50 µM (not active) and the AC50 [5] was > 52 µM (inactive). The AC50 [6] was 4.83 µM (active), the AC50 [7] was 3.43 µM (active) and the AC50 [8] was > 52 µM (inactive).

For `O=C(COc1ccc(C(=O)c2ccc(F)cc2)cc1)NCc1ccc(F)cc1`, the EC50 [9] was > 49.7 µM (not active) and the EC50 [10] was > 49.7 µM (not active).

In the case of `CCNC(S)=NNC(=O)c1cc(-c2ccc(OCC)cc2)nc2ccccc12`, the EC50 [11] was 8.23 µM (inconclusive), the EC50 [12] was 16.1 µM (active) and the EC50 [13] was 19 µM (active). For the same molecule, the EC50 [14] was 10.4 µM (active), the EC50 [15] was 3.3 µM (active) and the EC50 [16] was < 88 nM (active). The EC50 [17] was 1.08 µM (active), the IC50 [18] was > 39.8 µM (not active) and the EC50 [19] was > 150 µM (not active). For the same molecule, the EC50 [20] was 11.7 µM (active), the AC50 [21] was 1.7 µM (active) and the EC50 [22] was > 133 µM (inactive). The AC50 [5] was > 52 µM (inactive), the AC50 [23] was 49.6 µM (active) and the AC50 [6] was 3.19 µM (active). The AC50 [7] was 4.32 µM (active) and the EC50 [24] was > 67.5 µM (inactive).

With `COC(=O)/C(=C\Nc1ccc(Cl)c2ccccc12)c1ncc(C(F)(F)F)cc1Cl` the CC50 [25] was > 40 µM (active) and the IC50 [26] was > 50 µM (not active).
